Data as given in patent publication US8372846B2, “Co-crystals and pharmaceutical compositions comprising the same” (Vertex Pharmaceuticals Incorporated, priority 2006, dated 2013).

Assay: Solubility analyses in simulated intestinal fluid (HPLC of supernatant; solid form by XRPD)
Format: physicochemical
Settings: simulated intestinal fluid (pH 6.8); for XRPD (solid form): room temp.; for C, mg/mL Control: room temperature, VX-950 equivalents
Description: An aliquot of the sample was placed in a tube and then an aqueous medium was added. At set time points, an aliquot of supernatant was withdrawn, filtered through 0.45 PTFE micron filter (Millex, LCR, Millipore) and processed for high performance liquid chromatography (HPLC) analysis (Agilent 1100; Palo Alto, Calif., USA). The system was equipped with an autosampler set at 25° C. For the sample handling, an aliquot of the sample was diluted with acetonitrile at 1 to 1 by v/v ratio. The samples were run isocratically with the detector set at 270 nm. The column was XTerra® Phenyl column 150 mm×4.6 mm, 3.5 μm Particle Size (P/N 186001144) (Waters, Milford, Mass., USA). The mobile phase was potassium phosphate buffer (10 mM, pH=7.0):methanol at 60:40 (v/v) ratio. The run was done at the flow-rate of 1 mL/min and was completed within 15 min.

SMILES: CCC[C@H](NC(=O)[C@@H]1[C@H]2CCC[C@H]2CN1C(=O)[C@@H](NC(=O)[C@@H](NC(=O)c1cnccn1)C1CCCCC1)C(C)(C)C)C(=O)C(=O)NC1CC1 [VX-950 alone]
- XRPD (solid form) (24 hours): Crystallizes by 24 hour
- XRPD (solid form) (up to 2 hours): Amorphous (up to 2 hours
- C, mg/mL Control (24 hour): Not
- C, mg/mL Control (line with XRPD 'by about 4 hours'): 0.0183 mg/mL
- C, mg/mL Control (line with XRPD 'up to 2 hours'): 0.025 mg/mL
